The text below walks through data of DBAASP.

Holding throughout (assay): ≥ marks a high value that may be exact or a test limit, other limits are often not marked, values filed in µg/mL are converted to µM
For assay [1], the system named is Escherichia coli IFO 12734.
Assay [2] deals with Staphylococcus aureus IFO 12732.
The subject of assay [3] is Bacillus subtilis IFO 3513.
For assay [4], the system named is Staphylococcus aureus NCTC 10788.
Assay [5] deals with Candida albicans NCPF 1467.
Assay [6] deals with Pseudomonas aeruginosa PAO1.
Assay [7] relates to Staphylococcus aureus ATCC 9144.
In assay [8] the test system is Staphylococcus aureus USA 300.
Assay [9] concerns Escherichia coli NCTC 12923.
Assay [10] concerns Escherichia coli NCTC 10418.
Assay [11] deals with Klebsiella pneumoniae NCTC 13368.
Assay [12] concerns Acinetobacter baumannii ATCC 17978.
Assay [13] deals with Escherichia coli ATCC 25922.
Assay [14] deals with Batrachochytrium dendrobatidis JEL-197.
The subject of assay [15] is Escherichia coli ATCC 25726.
The test system of assay [16] is Staphylococcus aureus ATCC 25923.
Assay [17] has as its system Candida albicans ATCC 90028.
Assay [18] concerns Bacillus subtilis ATCC 6633.
Assay [19] deals with Staphylococcus aureus FDA 209P.
The test system of assay [20] is Staphylococcus aureus KCTC 1621.
In assay [21] the test system is Bacillus megaterium KCTC 1096.
The test system of assay [22] is Bacillus subtilis KCTC 1918.
The subject of assay [23] is Proteus vulgaris.
Assay [24] has as its system Escherichia coli KCTC 1682.
Assay [25] relates to Pseudomonas aeruginosa KCTC 1637.

≈ marks a conversion by molar mass, not a printed value. Bounds are passed on as bounds.

As usually defined, the MIC is the lowest concentration that inhibits growth of the organism. Low readings indicate inhibition by little substance, high ones a need for much substance. `CC[C@H](C)[C@H](N)C(=O)N[C@@H](CC(C)C)C(=O)N1CCC[C@H]1C(=O)N[C@@H](Cc1c[nH]c2ccccc12)C(=O)N[C@@H](CCCCN)C(=O)N[C@@H](Cc1c[nH]c2ccccc12)C(=O)N1CCC[C@H]1C(=O)N[C@@H](CC(C)C)C(=O)N[C@@H](Cc1c[nH]c2ccccc12)C(=O)N1CCC[C@H]1C(=O)N[C@@H](Cc1c[nH]c2ccccc12)C(=O)N[C@@H](CCCN=C(N)N)C(=O)N[C@@H](CCCN=C(N)N)C(N)=O` [ILPWKWPLWPWRR]: the minimum inhibitory concentration (MIC) in [1] is 6.81 µM (≈ 12.5 µg/mL); in assay [2] it was 0.851 µM (≈ 1.56 µg/mL); in assay [3] it was 1.71 µM (≈ 3.13 µg/mL).
In the case of `CC[C@H](C)[C@H](NC(=O)[C@H](C)NC(=O)[C@H](CCCCN)NC(=O)[C@@H]1CCCN1C(=O)[C@@H](NC(=O)[C@H](CC(C)C)NC(=O)[C@H](CO)NC(=O)[C@H](Cc1ccccc1)NC(=O)[C@H](CC(C)C)NC(=O)[C@@H](N)Cc1ccccc1)[C@@H](C)CC)C(=O)NCC(=O)NCC(=O)N[C@@H](CC(C)C)C(=O)N[C@H](C(=O)N[C@@H](CO)C(=O)N[C@@H](C)C(=O)N[C@@H](Cc1ccccc1)C(=O)N[C@@H](CCCCN)C(N)=O)[C@@H](C)CC` [FLFSLIPKAIGGLISAFK], the MIC in [4] was 3 µM (≈ 5.76 µg/mL); in assay [5], 5 µM (≈ 9.61 µg/mL); in assay [6], over 66.6 µM; in assay [7], 2.08 µM (≈ 4 µg/mL); in assay [8] it was 4.16 µM (≈ 8 µg/mL); in [9], 8.32 µM (≈ 16 µg/mL). Also, the MIC in assay [10] is 5 µM (≈ 9.61 µg/mL); in assay [11], at least 33.3 µM; in assay [12] it was 4.16 µM (≈ 8 µg/mL).
Turning to `CC[C@H](C)[C@@H]1NC(=O)[C@H](C)NC(=O)[C@@H](NC(=O)[C@H](Cc2ccccc2)NC(=O)[C@@H](NC(=O)[C@H](CCCCN)NC(=O)[C@@H]2CCCN2C(=O)[C@H](CC(C)C)NC(=O)[C@H](Cc2ccccc2)NC(=O)[C@H](CCC(N)=O)NC(=O)CNC(=O)[C@H](C)NC(=O)[C@H](C)NC(=O)CNC(=O)[C@@H](NC(=O)[C@@H](NC(=O)[C@H](C)NC(=O)[C@@H]2CCCN2C(=O)[C@H](CC(C)C)NC(=O)[C@@H](N)Cc2ccccc2)[C@@H](C)CC)C(C)C)[C@@H](C)CC)CSSC[C@@H](C(=O)O)NC(=O)[C@H](CCCCN)NC(=O)[C@H](CCCCN)NC(=O)[C@H](CO)NC1=O` [FLPAIVGAAGQFLPKIFCAISKKC], the values for the MIC in assay [13] and in assay [14] were 55 µM (≈ 139 µg/mL) and at least 40 µM, respectively.
Turning to `CC[C@H](C)[C@H](NC(=O)CN)C(=O)N[C@@H](CCSC)C(=O)N[C@@H](CC(N)=O)C(=O)N[C@H](C(=O)N[C@H](C(=O)N[C@@H](CCCCN)C(=O)N[C@@H](CC(=O)O)C(=O)N[C@H](C(=O)N[C@@H](C)C(=O)N[C@H](C(=O)NCC(=O)N[C@H](C(=O)N[C@@H](C)C(=O)N[C@H](C(=O)N[C@@H](Cc1cnc[nH]1)C(=O)N[C@@H](CC(C)C)C(=O)N[C@@H](CC(C)C)C(=O)N[C@@H](CC(N)=O)C(=O)N[C@@H](CCSC)C(=O)N[C@H](C(=O)N[C@@H](CCCCN)C(=O)N[C@H]1CSSC[C@@H](C(=O)O)NC(=O)CNC(=O)[C@H]([C@@H](C)O)NC(=O)[C@H]([C@@H](C)CC)NC(=O)[C@H](CCCCN)NC1=O)C(C)C)[C@@H](C)O)C(C)C)[C@@H](C)O)C(C)C)C(C)C)[C@@H](C)O` [GIMNTVKDVATGVATHLLNMVKCKITGC], the MIC in [15] is at least 50 µM; in [16] it was over 50 µM; in assay [17], at least 100 µM; in assay [14], at least 100 µM.
`CC(C)C[C@H](NC(=O)[C@H](CCC(N)=O)NC(=O)[C@H](CCC(N)=O)NC(=O)[C@H](C)NC(=O)CNC(=O)[C@H](C)NC(=O)[C@H](CCCCN)NC(=O)CNC(=O)[C@@H](NC(=O)[C@H](CO)NC(=O)[C@H](CCCCN)NC(=O)[C@H](CC(C)C)NC(=O)[C@H](CC(C)C)NC(=O)[C@H](Cc1ccc(O)cc1)NC(=O)[C@H](CCCCN)NC(=O)[C@H](C)NC(=O)CNC(=O)[C@H](C)NC(=O)[C@H](CCCCN)NC(=O)[C@H](Cc1ccccc1)NC(=O)[C@H](CC(C)C)NC(=O)[C@H](CO)NC(=O)[C@H](CO)NC(=O)[C@H](Cc1ccccc1)NC(=O)CN)C(C)C)C(=O)N[C@@H](C)C(=O)N[C@H]1CSSC[C@@H](C(=O)N[C@@H](C)C(=O)O)NC(=O)[C@H](CC(N)=O)NC(=O)[C@H](CC(N)=O)NC(=O)[C@H](C)NC(=O)[C@H](C)NC(=O)[C@H](CCCCN)NC1=O` [GFSSLFKAGAKYLLKSVGKAGAQQLACKAANNCA]: the MIC in [18] was 18.7 µM (≈ 64 µg/mL); in assay [19] it was 4.36 µM (≈ 14.9 µg/mL).
With `CC[C@H](C)[C@H](N)C(=O)N[C@@H](CC(C)C)C(=O)N1CCC[C@H]1C(=O)N[C@@H](Cc1c[nH]c2ccccc12)C(=O)N[C@@H](CCCCN)C(=O)N[C@@H](Cc1c[nH]c2ccccc12)C(=O)N1CCC[C@H]1C(=O)N[C@@H](Cc1c[nH]c2ccccc12)C(=O)N[C@@H](Cc1c[nH]c2ccccc12)C(=O)N1CCC[C@H]1C(=O)N[C@@H](CC(C)C)C(=O)N[C@@H](CCCN=C(N)N)C(=O)N[C@@H](CCCN=C(N)N)C(N)=O` [ILPWKWPWWPLRR], the MIC in [1] came out at 13.6 µM (≈ 25 µg/mL); in [2], 1.71 µM (≈ 3.13 µg/mL); in [3], 1.71 µM (≈ 3.13 µg/mL).
Regarding `CC[C@H](C)[C@H](N)C(=O)N[C@@H](CC(C)C)C(=O)N1CCC[C@H]1C(=O)N[C@@H](Cc1c[nH]c2ccccc12)C(=O)N[C@@H](CCCCN)C(=O)N[C@@H](Cc1c[nH]c2ccccc12)C(=O)N1CCC[C@H]1C(=O)N[C@@H](Cc1c[nH]c2ccccc12)C(=O)N[C@@H](CC(C)C)C(=O)N1CCC[C@H]1C(=O)N[C@@H](CCCCN)C(=O)N[C@@H](CCCN=C(N)N)C(=O)N[C@@H](CCCN=C(N)N)C(N)=O` [ILPWKWPWLPKRR], the values for the MIC in assay [1], in assay [2] and in [3] were 28.2 µM (≈ 50 µg/mL), 3.52 µM (≈ 6.25 µg/mL) and 1.76 µM (≈ 3.13 µg/mL), respectively.
As for `CC[C@H](C)[C@H](NC(=O)[C@H](CCCCN)NC(=O)[C@H](CCCCN)NC(=O)[C@H](Cc1ccccc1)NC(=O)[C@H](CC(C)C)NC(=O)[C@H](CCCCN)NC(=O)[C@H](Cc1c[nH]c2ccccc12)NC(=O)[C@@H](N)CCCCN)C(=O)N[C@@H](CO)C(=O)N[C@@H](CCCCN)C(=O)N[C@@H](Cc1ccccc1)C(=O)N[C@@H](CC(C)C)C(=O)N[C@@H](Cc1cnc[nH]1)C(=O)N[C@@H](CC(C)C)C(=O)N[C@@H](C)C(=O)N[C@@H](CCCCN)C(=O)N[C@@H](CCCCN)C(=O)N[C@@H](Cc1ccccc1)C(N)=O` [KWKLFKKISKFLHLAKKF], the MIC was determined as 6.25 µM (≈ 14.3 µg/mL) in assay [20]; 3.12 µM (≈ 7.16 µg/mL) in assay [21]; 1.56 µM (≈ 3.57 µg/mL) in assay [22]; 6.25 µM (≈ 14.3 µg/mL) in assay [23]; 25 µM (≈ 57.2 µg/mL) in assay [24]; 6.25 µM (≈ 14.3 µg/mL) in assay [25].
As for `CC[C@H](C)[C@H](NC(=O)[C@H](CCCCN)NC(=O)[C@H](CCCCN)NC(=O)[C@H](Cc1ccccc1)NC(=O)[C@H](CC(C)C)NC(=O)[C@H](CCCCN)NC(=O)[C@@H](N)Cc1ccccc1)C(=O)N1CCC[C@H]1C(=O)N[C@@H](CCCCN)C(=O)N[C@@H](Cc1ccccc1)C(=O)N[C@@H](CC(C)C)C(=O)N[C@@H](Cc1cnc[nH]1)C(=O)N[C@@H](CC(C)C)C(=O)N[C@@H](C)C(=O)N[C@@H](CCCCN)C(=O)N[C@@H](CCCCN)C(=O)N[C@@H](Cc1ccccc1)C(N)=O` [FKLFKKIPKFLHLAKKF], the MIC in [20] turned out to be 3.12 µM (≈ 6.66 µg/mL); in [21], 0.78 µM (≈ 1.66 µg/mL); in assay [22], 0.78 µM (≈ 1.66 µg/mL); in assay [23], 1.56 µM (≈ 3.33 µg/mL); in assay [24] it was 6.26 µM (≈ 13.4 µg/mL); in assay [25], 1.56 µM (≈ 3.33 µg/mL).
